According to PubChem BioAssay AID330 (DTP/NCI, 2004):
Where “and” joins values, the source holds several entries; their conditions need not be identical. Identical values can stand only once. Toxic doses and inconclusive results are not listed. The calls were made as follows: active = survival T/C of 150% or more; inactive = T/C below 125% in these data.

Tested on: P388 leukemia ip, CD2F1 mice, survival T/C
Experiment: NCI In Vivo Anticancer Drug Screen. Data for tumor model P388 Leukemia (intraperitoneal) in CD2F1 (CDF1) mice
Conditions: endpoint: median survival time, higher = longer survival
Procedure, shortened: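 Mice carrying the transplanted tumor received test compound or vehicle. Survival was recorded in each group, and the value is the treated-group measurement divided by that of the vehicle-treated control group.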

[1] = dose: 50.0 mg/kg/injection, schedule: Q01DX009 (ip), vehicle: saline
[2] = dose: 100.0 mg/kg/injection, schedule: Q01DX009 (ip), vehicle: saline
[3] = dose: 200.0 mg/kg/injection, schedule: Q01DX009 (ip), vehicle: saline
[4] = dose: 50.0 mg/kg/injection, schedule: Q01DX009 (ip), vehicle: saline with Tween-80
[5] = dose: 100.0 mg/kg/injection, schedule: Q01DX009 (ip), vehicle: saline with Tween-80
[6] = dose: 200.0 mg/kg/injection, schedule: Q01DX009 (ip), vehicle: saline with Tween-80
[7] = dose: 50.0 mg/kg/injection, schedule: Q04DX003 (ip), vehicle: saline with Tween-80
[8] = dose: 50.0 mg/kg/injection, schedule: Q01DX005 (ip), vehicle: saline with Tween-80
[9] = dose: 100.0 mg/kg/injection, schedule: Q01DX005 (ip), vehicle: saline with Tween-80

Measured: T/C

CC1(C)NC(=S)N(c2ccccc2C(=O)O)C2=C1CN(Cc1ccccc1)CC2
inactive: [1] 100 % of control | [2] 95 % of control | [3] 105 % of control

CC(C)C12OC1CC13OC1C1OC1C1OC132 (stereo not given)
inactive: dose: 100.0 mg/kg/injection, schedule: Q04DX002 (ip), vehicle: saline with Tween-80 101 % of control | dose: 200.0 mg/kg/injection, schedule: Q04DX002 (ip), vehicle: saline with Tween-80 99 % of control | dose: 400.0 mg/kg/injection, schedule: Q04DX002 (ip), vehicle: saline with Tween-80 94 % of control

C=C1CC2C(C1=O)C(c1ccc(OC)cc1)C13OC1CCC23 (stereo not given)
inactive: dose: 100.0 mg/kg/injection, schedule: Q04DX003 (ip), vehicle: Klucel (hydroxypropylcellulose) (HPC) 105 % of control | dose: 200.0 mg/kg/injection, schedule: Q04DX003 (ip), vehicle: Klucel (hydroxypropylcellulose) (HPC) 96 % of control | dose: 400.0 mg/kg/injection, schedule: Q04DX003 (ip), vehicle: Klucel (hydroxypropylcellulose) (HPC) 86 % of control

O/N=C/c1ccc2c(c1)OCO2
inactive: [4] 99 % of control | [5] 100 % of control | [6] 87 % of control

CCCCCC(C)N (stereo not given)
inactive: dose: 12.5 mg/kg/injection, schedule: Q01DX009 (ip), vehicle: saline 95 % of control | dose: 25.0 mg/kg/injection, schedule: Q01DX009 (ip), vehicle: saline 90 % of control

CC(C[N+](C)(C)C)OC(N)=O (stereo not given)
inactive: dose: 50.0 mg/kg/injection, schedule: Q01DX001 (ip), vehicle: saline 101 % of control | dose: 100.0 mg/kg/injection, schedule: Q01DX001 (ip), vehicle: saline 100 % of control | dose: 200.0 mg/kg/injection, schedule: Q01DX001 (ip), vehicle: saline 108 % of control

COc1c2ccncc2c(C)c2c1[nH]c1ccccc12
inactive: dose: 6.25 mg/kg/injection, schedule: Q04DX002 (ip), vehicle: distilled water + Tween-80 98 % of control | dose: 12.5 mg/kg/injection, schedule: Q04DX002 (ip), vehicle: distilled water + Tween-80 94 % of control | dose: 25.0 mg/kg/injection, schedule: Q04DX002 (ip), vehicle: distilled water + Tween-80 94 % of control | dose: 50.0 mg/kg/injection, schedule: Q04DX002 (ip), vehicle: distilled water + Tween-80 89 % of control | dose: 100.0 mg/kg/injection, schedule: Q04DX002 (ip), vehicle: distilled water + Tween-80 89 % of control | dose: 200.0 mg/kg/injection, schedule: Q04DX002 (ip), vehicle: distilled water + Tween-80 88 % of control

O=C(O)C1[S][Sb]([CH](C(=O)O)[CH](C(=O)O)[Sb]2[S]C(C(=O)O)C(C(=O)O)[S]2)[S]C1C(=O)O (stereo not given)
inactive: [1] 100 % of control | [2] 98 % of control | [3] 108 % of control

CCOCC[Se]c1ccccc1
inactive: [1] 92 % of control | [2] 92 % of control | [3] 91 % of control

CC(C)(C)/C(O)=C/c1nc2ccc(Cl)cc2[nH]c1=O
inactive: dose: 7.5 mg/kg/injection, schedule: Q01DX005 (ip), vehicle: Klucel + Tween-80 97 % of control | dose: 15.0 mg/kg/injection, schedule: Q01DX005 (ip), vehicle: Klucel + Tween-80 92 % of control | dose: 30.0 mg/kg/injection, schedule: Q01DX005 (ip), vehicle: Klucel + Tween-80 88 % of control | dose: 240.0 mg/kg/injection, schedule: Q01DX005 (ip), vehicle: Klucel + Tween-80 90 % of control

Nc1cccc(NC=O)c1
inactive: dose: 12.5 mg/kg/injection, schedule: Q04DX003 (ip), vehicle: saline with Tween-80 100 % of control | dose: 25.0 mg/kg/injection, schedule: Q04DX003 (ip), vehicle: saline with Tween-80 110 % of control | [7] 100 % of control

O=C1CCSC(=S)N1c1ccc2c(c1)OCO2
inactive: dose: 50.0 mg/kg/injection, schedule: Q01DX009 (ip), vehicle: suspension in saline 105 % of control | dose: 100.0 mg/kg/injection, schedule: Q01DX009 (ip), vehicle: suspension in saline 90 % of control | dose: 200.0 mg/kg/injection, schedule: Q01DX009 (ip), vehicle: suspension in saline 98 % of control

OC1COC(c2ccccc2)OC1C1OC(c2ccccc2)OC2COC(c3ccccc3)OC21 (stereo not given)
inactive: [4] 107 % of control | [5] 96 % of control | [6] 97 % of control

CC1(C)C(O)C(C)(C)C1O (stereo not given)
inactive: dose: 12.5 mg/kg/injection, schedule: Q01DX009 (ip), vehicle: saline with Tween-80 100 % of control | dose: 25.0 mg/kg/injection, schedule: Q01DX009 (ip), vehicle: saline with Tween-80 100 % of control | [4] 100 % of control

CC1=C(c2ccccc2)OS(=O)(=O)CC1N(C)C (stereo not given)
inactive: [8] 99 % of control | [9] 99 % of control | dose: 200.0 mg/kg/injection, schedule: Q01DX005 (ip), vehicle: saline with Tween-80 98 % of control

CC(C)(C)C1CCC(C(=O)O)CC1 (stereo not given)
inactive: [4] 91 % of control | [7] 100 % of control | [5] 100 % of control and 91 % of control | dose: 100.0 mg/kg/injection, schedule: Q04DX003 (ip), vehicle: saline with Tween-80 95 % of control | [6] 91 % of control and 100 % of control | dose: 200.0 mg/kg/injection, schedule: Q04DX003 (ip), vehicle: saline with Tween-80 109 % of control and 95 % of control | dose: 400.0 mg/kg/injection, schedule: Q01DX009 (ip), vehicle: saline with Tween-80 91 % of control | dose: 400.0 mg/kg/injection, schedule: Q04DX003 (ip), vehicle: saline with Tween-80 100 % of control

CCN(CC)c1ccc2[nH]c3c(C(N)=O)cc(=O)c(=O)c=3oc2c1
inactive: dose: 12.5 mg/kg/injection, schedule: Q01DX005 (ip), vehicle: saline with Tween-80 104 % of control and 107 % of control | dose: 25.0 mg/kg/injection, schedule: Q01DX005 (ip), vehicle: saline with Tween-80 104 % of control and 117 % of control | [8] 107 % of control and 120 % of control | [9] 113 % of control and 122 % of control and 123 % of control

CC(=O)c1c(C)n(-c2ccccc2)c2c1[nH]c1ccccc12
inactive: dose: 3.75 mg/kg/injection, schedule: Q01DX005 (ip), vehicle: Klucel (hydroxypropylcellulose) (HPC) 94 % of control | dose: 7.5 mg/kg/injection, schedule: Q01DX005 (ip), vehicle: Klucel (hydroxypropylcellulose) (HPC) 92 % of control | dose: 15.0 mg/kg/injection, schedule: Q01DX005 (ip), vehicle: Klucel (hydroxypropylcellulose) (HPC) 86 % of control and 93 % of control | dose: 60.0 mg/kg/injection, schedule: Q01DX005 (ip), vehicle: Klucel (hydroxypropylcellulose) (HPC) 93 % of control | dose: 240.0 mg/kg/injection, schedule: Q01DX005 (ip), vehicle: Klucel (hydroxypropylcellulose) (HPC) 92 % of control

CC1OC(OCc2ccc(-c3ccccc3)cc2)CC(N)C1O (stereo not given)
inactive: dose: 1.56 mg/kg/injection, schedule: Q01DX009 (ip), vehicle: water 99 % of control | dose: 3.13 mg/kg/injection, schedule: Q01DX009 (ip), vehicle: water 104 % of control | dose: 6.25 mg/kg/injection, schedule: Q01DX009 (ip), vehicle: water 107 % of control | dose: 12.5 mg/kg/injection, schedule: Q01DX009 (ip), vehicle: water 108 % of control | dose: 25.0 mg/kg/injection, schedule: Q01DX009 (ip), vehicle: water 98 % of control

O=C(O)c1cccc(Cl)c1 (tested in a mixture with another compound)
inactive: dose: 100.0 mg/kg/injection, schedule: Q01DX001 (ip), vehicle: saline with Tween-80 94 % of control | dose: 200.0 mg/kg/injection, schedule: Q01DX001 (ip), vehicle: saline with Tween-80 99 % of control | dose: 400.0 mg/kg/injection, schedule: Q01DX001 (ip), vehicle: saline with Tween-80 95 % of control

O=C1NC(=O)C(=Cc2ccc(Cl)cc2)C(=O)N1
inactive: dose: 50.0 mg/kg/injection, schedule: Q01DX005 (ip), vehicle: Klucel (hydroxypropylcellulose) (HPC) 114 % of control | dose: 100.0 mg/kg/injection, schedule: Q01DX005 (ip), vehicle: Klucel (hydroxypropylcellulose) (HPC) 116 % of control
